Test results published in US9695155B2, “Herbicidal substituted pyrimidinyloxy benzene compounds” (E. I. DU PONT DE NEMOURS AND COMPANY, priority 2013, dated 2017).

Legend:
wheat = assay: Test A postemergence; assay type: in vivo, Triticum aestivum
Summary of the method: (§1)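 Pre- and postemergence greenhouse screen. Soil: loam + sand. Spray carrier: solvent mixture, non-phytotoxic, with surfactant. Post timing at 1–2 leaves, height 2–10 cm. Readout: visual injury on a 0–100 scale roughly 10 days after application, untreated plants as reference.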

wild oat = assay: Test C postemergence; assay type: in vivo, Avena fatua
Summary of the method: (§2)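 Greenhouse herbicide screen. Pre: seeded loam/sand, sprayed at planting. Post: 1–4 leaf plants (2–18 cm) in peat-based mix. Formulation: solvent mixture + surfactant, non-phytotoxic. Readout: visual % control vs untreated, 13–15 d; dash = not tested.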

giant foxtail = assay: Test A preemergence; assay type: in vivo, Setaria faberii; settings: for Plant response rating, Foxtail, Giant: 0 to 100 scale where 0 is no effect and 100 is complete control
Summary of the method: as §1

ragweed [1] = assay: Test A preemergence; assay type: in vivo, Ambrosia elatior; settings: for Plant response rating, Ragweed: 0 to 100 scale where 0 is no effect and 100 is complete control
Summary of the method: as §1

chickweed = assay: Test C postemergence; assay type: in vivo, Stellaria media; settings: for Chickweed plant response rating / Plant response rating, Chickweed: scale 0 to 100 (0 no effect, 100 complete control)
Summary of the method: as §2

large (Lg) crabgrass = assay: Test C preemergence; assay type: in vivo, Digitaria sanguinalis; settings: for Crabgrass, Large plant response rating: preemergence; for Plant response rating, Crabgrass, Large: Preemergence, scale 0 to 100, 0 no effect, 100 complete control
Summary of the method: as §2

Italian ryegrass = assay: Test C preemergence; assay type: in vivo, Lolium multiflorum; settings: for Ryegrass, Italian plant response rating: preemergence; for Plant response rating, Ryegrass, Italian: Preemergence, scale 0 to 100, 0 no effect, 100 complete control
Summary of the method: as §2

wheat, winter = assay: Test C postemergence; assay type: in vivo, Triticum aestivum
Summary of the method: as §2

ragweed [2] = assay: Test A postemergence; assay type: in vivo, Ambrosia elatior
Summary of the method: as §1

barnyardgrass = assay: Test B flooded paddy test; assay type: in vivo, Echinochloa crus-galli; settings: Flood, 250 g ai/ha; 0 to 100 scale where 0 is no effect and 100 is complete control
Summary of the method: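 Visual ratings on a 0 to 100 scale, where 100 means complete control, compared treated plants with controls after 13 to 15 days in a greenhouse. Treatment went into paddy water 3 cm deep over the soil, applied to plants at the 2-leaf stage.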

blackgrass = assay: Test A postemergence; assay type: in vivo, Alopecurus myosuroides
Summary of the method: as §1

pigweed = assay: Test A preemergence; assay type: in vivo, Amaranthus retroflexus; settings: for Plant response rating, Pigweed: 0 to 100 scale where 0 is no effect and 100 is complete control
Summary of the method: as §1

kochia = assay: Test C postemergence; assay type: in vivo, Kochia scoparia; settings: for Kochia plant response rating / Plant response rating, Kochia: scale 0 to 100 (0 no effect, 100 complete control)
Summary of the method: as §2

[3] = 31 g ai/ha, 0 to 100 scale, 0 no effect, 100 complete control
[4] = 125 g ai/ha, 0 to 100 scale, 0 no effect, 100 complete control
[5] = 16 g ai/ha, postemergence, 0 is no effect, 100 is complete control
[6] = 31 g ai/ha, postemergence, visual rating, scale 0 to 100 (0 no effect, 100 complete control), 13 to 15 days
[7] = 125 g ai/ha, postemergence, visual rating, scale 0 to 100 (0 no effect, 100 complete control)
[8] = Postemergence, 62 g ai/ha, scale 0 to 100 (0 no effect, 100 complete control), 13 to 15 days
[9] = 31 g ai/ha, visual, approximately 10 days
[10] = 31 g ai/ha, postemergence, visual rating, 13 to 15 days
[11] = 125 g ai/ha, postemergence, visual rating
[12] = Postemergence, 62 g ai/ha, 13 to 15 days
[13] = 16 g ai/ha, scale 0 to 100 (0 no effect, 100 complete control)
[14] = 125 g ai/ha, scale 0 (no effect) to 100 (complete control)
[15] = 125 g ai/ha, 0 to 100 scale where 0 is no effect and 100 is complete control
[16] = 500 g ai/ha, 0 to 100 scale where 0 is no effect and 100 is complete control
[17] = Postemergence, 31 g ai/ha, scale 0 to 100 (0 no effect, 100 complete control), 13 to 15 days
[18] = Postemergence, 62 g ai/ha, scale 0 to 100 (0 no effect, 100 complete control)
[19] = 500 g ai/ha, 0 to 100 scale, 0 no effect, 100 complete control, approx. 10 days
[20] = 16 g ai/ha, postemergence, visual rating, 13 to 15 days
[21] = Postemergence, 31 g ai/ha, 13 to 15 days
[22] = 62 g ai/ha, scale 0 (no effect) to 100 (complete control)

FC(F)Oc1cnn(-c2c(Cl)cccc2Oc2ncc(Cl)cn2)c1 [Compound 258]
20: Plant response rating, Blackgrass (blackgrass; [3])
5: Plant response rating (0 to 100), Oat, Wild (wild oat; [5]) | Oat, Wild plant response rating (wild oat; [6]) | Plant response rating, Wheat (wheat, winter; [7]) | Plant response rating, Wheat (wheat, winter; [8])
15: Plant response rating, Oat, Wild (wild oat; [7])
90: Plant response rating, Chickweed (chickweed; [12]) | Plant response rating (0 to 100), Kochia (kochia; [5])
0: Plant response rating, Wheat (wheat; [3]) | Plant response rating, Ragweed (ragweed [1]; [9]) | Ryegrass, Italian plant response rating (Italian ryegrass; [13]) | Plant response rating (0 to 100), Wheat (wheat, winter; [5]) | Wheat plant response rating (wheat, winter; [6])
95: Plant response rating, Chickweed (chickweed; [11]) | Kochia plant response rating (kochia; [10])
50: Plant response rating, Wheat (wheat; [4]) | Plant response rating (0 to 100), Chickweed (chickweed; [5]) | Chickweed plant response rating (chickweed; [10]) | Plant response rating, Ragweed (ragweed [2]; [4]) | Plant response rating, Blackgrass (blackgrass; [4])
40: Ragweed plant response rating (0 to 100 scale) (ragweed [1]; 125 g ai/ha)
60: Plant response rating, Foxtail, Giant (giant foxtail; [9]) | Plant response rating, Barnyardgrass (barnyardgrass)
10: Plant response rating, Oat, Wild (wild oat; [8]) | Plant response rating, Ragweed (ragweed [2]; [3])
25: Plant response rating, Ryegrass, Italian (Italian ryegrass; 62 g ai/ha)
70: Ryegrass, Italian plant response rating (Italian ryegrass; [14])
100: Foxtail, Giant plant response rating (0 to 100 scale) (giant foxtail; 125 g ai/ha) | Crabgrass, Large plant response rating (large (Lg) crabgrass; [13]) | Crabgrass, Large plant response rating (large (Lg) crabgrass; [14]) | Plant response rating, Crabgrass, Large (large (Lg) crabgrass; 62 g ai/ha) | Plant response rating, Pigweed (pigweed; [9]) | Pigweed plant response rating (0 to 100 scale) (pigweed; 125 g ai/ha) | Plant response rating, Kochia (kochia; [11]) | Plant response rating, Kochia (kochia; [12])

CC(C)c1cnn(-c2c(C#N)cccc2Oc2ncc(Cl)cn2)c1 [Compound 85]
5: Plant response rating (0 to 100), Oat, Wild (wild oat; 125 g ai/ha, postemergence) | Plant response rating, Oat, Wild (wild oat; [18]) | Chickweed plant response rating (chickweed; [20]) | Plant response rating, Wheat (wheat, winter; [18])
90: Plant response rating, Crabgrass, Large (large (Lg) crabgrass; 31 g ai/ha) | Plant response rating (0 to 100), Kochia (kochia; 125 g ai/ha, postemergence)
100: Plant response rating, Foxtail, Giant (giant foxtail; 125 g ai/ha) | Foxtail, Giant plant response rating (giant foxtail; [19]) | Crabgrass, Large plant response rating (large (Lg) crabgrass; [22]) | Crabgrass, Large plant response rating (large (Lg) crabgrass; [14]) | Plant response rating, Pigweed (pigweed; 125 g ai/ha) | Pigweed plant response rating (pigweed; [19])
40: Plant response rating, Ragweed (ragweed [1]; 125 g ai/ha) | Plant response rating (0 to 100), Chickweed (chickweed; 125 g ai/ha, postemergence) | Plant response rating, Chickweed (chickweed; [21])
70: Plant response rating, Wheat (wheat; [16]) | Plant response rating, Blackgrass (blackgrass; [15])
60: Ragweed plant response rating (ragweed [1]; [19]) | Plant response rating, Ragweed (ragweed [2]; [16])
50: Plant response rating, Chickweed (chickweed; Postemergence, 62 g ai/ha) | Ryegrass, Italian plant response rating (Italian ryegrass; [14]) | Plant response rating, Ragweed (ragweed [2]; [15]) | Kochia plant response rating (kochia; [20]) | Plant response rating, Kochia (kochia; [21])
80: Plant response rating, Blackgrass (blackgrass; 500 g ai/ha, 0 to 100 scale, 0 no effect, 100 complete control) | Plant response rating, Kochia (kochia; Postemergence, 62 g ai/ha)
0: Plant response rating, Wheat (wheat; [15]) | Plant response rating, Oat, Wild (wild oat; [17]) | Ryegrass, Italian plant response rating (Italian ryegrass; [13]) | Ryegrass, Italian plant response rating (Italian ryegrass; [22]) | Plant response rating, Ryegrass, Italian (Italian ryegrass; 31 g ai/ha) | Plant response rating (0 to 100), Wheat (wheat, winter; 125 g ai/ha, postemergence) | Plant response rating, Wheat (wheat, winter; [17]) | Plant response rating, Barnyardgrass (barnyardgrass)
65: Crabgrass, Large plant response rating (large (Lg) crabgrass; [13])
